Like-named read-outs stand apart in the source and are kept apart here. *1 amine or outer side, *2 acyl side, *3 side chain or, on linkers, in order; H or OH if unused. Where a SMILES comes first, the peptide text is derived from it. Bridges are numbered along the chain shown (N, C = ends). [ ]: non-standard residue; d: D form. The star is where a group is joined. pTerphenylCO(4''-OnC5H11) = CCCCCOc1ccc(-c2ccc(-c3ccc(C(=O)*)cc3)cc2)cc1; Orn(4R-OH,5R-OH) = O=C([C@H](C[C@@H](O)[C@@H](O)N[*:3])N[*:1])[*:2]; hTyr(3S-OH,4S-OH) = N[C@H](C(=O)O)[C@H](O)[C@@H](O)c1ccc(O)cc1; Pro(3S-OH,4S-Me) = C[C@H]1CN[C@H](C(=O)O)[C@H]1O; Hyp = O=C(O)[C@@H]1C[C@@H](O)CN1
Key:
[1] = Dissolution profile of tableted formulation 17; type: physicochemical
Experimental: A dissolution study of the tablet of formulation 17 was performed using 500 mL of 100 mM Acetate Buffer pH 5.2 as the medium. The method utilized Apparatus 2 with a paddle speed of 50 rpm, a tablet sinker, and the run time was 60 minutes. […] The HPLC method was a gradient method using an Agilent Zorbax Bonus-RP column (250×4.6 mm) (column temperature of 60° C., wavelength of 300 nm, with Mobile Phase A=33 mM sodium pentanesulfonate pH 4.0 and Mobile Phase B=acetonitrile). The samples were injected neat with an injection volume of 15 μL.

[2] = Solubility in aqueous media of varying pH; type: physicochemical; conditions: for solubility: ambient temperature, compound 22 as acetate salt, salt free equivalent
[3] = Pharmacokinetics in chimpanzee, IV dose; conditions: in vivo
Experimental: (§1) Pharmacokinetic studies were performed in six adult female chimpanzees. Two chimpanzees received 1-mg/kg IV dose of compound 22 formulated in 5% dextrose (60-minute infusion). Two chimpanzees received 10-mg/kg oral dose of compound 22 formulated in 5% citric acid (oral bolus). Two chimpanzees received 1-mg/kg IV dose of anidulafungin formulated as package label (5% dextrose, 60-minute infusion). Plasma samples were collected from all chimps for 10 days to 22 days. PK curves are depicted in FIGS. 16A, 16B, and 18. All pharmacokinetic calculations were performed using WinNonlin version 4.1 (Pharsight Corp) by noncompartmental analysis.

[4] = Circulating half-life in mouse; type: in vivo; conditions: assays conducted by applicant
[5] = Storage stability of solutions and lyophilized formulations (HPLC); type: physicochemical; conditions: for Loss in potency: clear vial, ambient light, 4 months
[6] = Circulating half-life in rat; type: in vivo; conditions: assays conducted by applicant
[7] = Pharmacokinetics in chimpanzee, oral dose; type: in vivo
Experimental: as §1

[8] = Rabbit, literature values; cited from earlier work
[9] = Mouse, literature values; cited from earlier work
[10] = Dog, literature values; cited from earlier work
[11] = Rat, literature values; cited from earlier work
[12] = Man, literature values; cited from earlier work

For `CC(=O)[O-].CCCCCOc1ccc(-c2ccc(-c3ccc(C(=O)NC4CC(O)C(OCC[N+](C)(C)C)NC(=O)C5C(O)C(C)CN5C(=O)C(C(C)O)NC(=O)C(C(O)C(O)c5ccc(O)cc5)NC(=O)C5CC(O)CN5C(=O)C(C(C)O)NC4=O)cc3)cc2)cc1` (stereo not shown) [Compound 22], the “% Compound 22 Dissolved” value ([1]; tablet of formulation 17, 100 mM acetate buffer pH 5.2, 5 minutes) was 23%, the “% Compound 22 Dissolved” value ([1]; tablet of formulation 17, 100 mM acetate buffer pH 5.2, 10 minutes) was 48% and the “% Compound 22 Dissolved” value ([1]; tablet of formulation 17, 100 mM acetate buffer pH 5.2, 15 minutes) was 62%. For the same compound, the “% Compound 22 Dissolved” value ([1]; tablet of formulation 17, 100 mM acetate buffer pH 5.2, 30 minutes) was 93%, the “% Compound 22 Dissolved” value ([1]; tablet of formulation 17, 100 mM acetate buffer pH 5.2, 45 minutes) was 96% and the “% Compound 22 Dissolved” value ([1]; tablet of formulation 17, 100 mM acetate buffer pH 5.2, 60 minutes) was 97%. It also gave a solubility ([2]; 90% Water:10% glycerol) of over 102.3 mg/mL, a solubility ([2]; Acetate buffer (0.01M, pH 4.5)) of over 145 mg/mL and a solubility ([2]; Acetate buffer (0.01M, pH 5.5)) of over 141 mg/mL. For the same compound, the solubility ([2]; Sterile Water for injection) was over 142 mg/mL, the solubility ([2]; Tris buffer (0.01M, pH 8.5)) was over 138 mg/mL and the “Aqueous solubility compared with anidulafungin” value ([2]; variety of aqueous mediums) was “dramatically greater aqueous solubility than anidulafungin”. For the same compound, the “Clearance used to calculate human circulating concentrations” value ([3]; human) was 0.0567 mL/min/kg, the “Plasma half life used to calculate human circulating concentrations” value ([3]; human) was 80 h and the “Clearance compared with anidulafungin” value [3] was “lower clearance”. For the same compound, the “Half-life compared with anidulafungin” value [3] was “longer half-life”, the “Plasma half-life (IV)” value ([3]; iv) was 81 h and the clearance ([3]; iv) was 0.0567 mL/min/kg. The Half-life [4] was 44 to 71 h, the Loss in potency ([5]; 5% Dextrose Solution (1.3 and 1.1 mg/mL) and 0.9% Sterile Saline Solution (1.3 mg/mL), room temperature) was “less than 5%” and the Loss in potency ([5]; accelerated aging at 40° C., 5% Dextrose, 20 mM Acetate Buffer pH 4.5, 20 mM Lactate pH 6.0 (3.3 mg/mL)) was “less than 5%”. For the same compound, the Stability upon storage ([5]; as a solid or in solution) was “commercially acceptable stability”, the Half-life [6] was 30 h and the Oral bioavailability ([7]; chimpanzees, 10-mg/kg oral bolus in 5% citric acid) was 4.5%. For the same compound, the “Plasma half-life (PO)” value ([7]; chimpanzees, 10-mg/kg oral bolus in 5% citric acid, mean of 2 chimps) was 99 h and the “Oral bioavailability used to calculate human circulating concentrations” value ([7]; values based upon chimpanzee studies) was 5%.

In the case of `CCCCCOc1ccc(-c2ccc(-c3ccc(C(=O)N[C@H]4C[C@@H](O)[C@@H](O)NC(=O)[C@@H]5[C@@H](O)[C@@H](C)CN5C(=O)[C@H]([C@@H](C)O)NC(=O)[C@H]([C@H](O)[C@@H](O)c5ccc(O)cc5)NC(=O)[C@@H]5C[C@@H](O)CN5C(=O)[C@H]([C@@H](C)O)NC4=O)cc3)cc2)cc1` [Anidulafungin, anidulafungin, reference compound] ({pTerphenylCO(4''-OnC5H11)}-[Orn(4R-OH,5R-OH)]T[Hyp][hTyr(3S-OH,4S-OH)]T[Pro(3S-OH,4S-Me)]; lactam 1-C), the Half-life [8] is given as 4 to 6 h, the Half-life [9] is given as 14 to 20 h and the Half-life [10] is given as 15 h. It also gave a solubility ([2]; Sterile Water for injection, read-out: Solubility) of under 0.01 mg/mL, a solubility ([2]; aqueous buffer, Acetate buffer (0.01M, pH 4.5), read-out: Solubility) of under 0.01 mg/mL and a solubility ([2]; aqueous buffer, Acetate buffer (0.01M, pH 5.5), read-out: Solubility) of under 0.01 mg/mL. The solubility ([2]; aqueous buffer, Tris buffer (0.01M, pH 8.5), read-out: Solubility) was under 0.01 mg/mL, the solubility ([2]; aqueous with cosolvent or surfactant or cyclodextrin, 90% Water:10% glycerol, read-out: Solubility) was under 0.01 mg/mL and the Half-life [11] was 18 h. For the same compound, the Half-life [12] was 24 to 26 h, the clearance ([3]; female, chimpanzees, 1-mg/kg IV 60-minute infusion, mean of 2 chimps, read-out: Clearance (converted)) was 0.417 mL/min/kg and the Half-life ([3]; female, chimpanzees, 1-mg/kg IV 60-minute infusion, mean of 2 chimps, read-out: Plasma half-life (IV) (converted)) was 30 h. For the same compound, the Vd ([3]; female, chimpanzees, 1-mg/kg IV 60-minute infusion, mean of 2 chimps, read-out: Volume of distribution) was 1.1 L/kg and the Half-life ([6]; in vivo, read-out: Half-life (converted)) was 22 h.

— patent publication US11654196B2, “Dosing regimens for echinocandin class compounds” (priority 2012, dated 2023)
